Results reported in paper PMC8924211 (Nature Communications, 2022).
Numbering of substitutions follows the chain as printed.

Experiments:
GAL2R mutants [1] = target: T1, GAL2R mutants (Homo sapiens, UniProt O43603, A170S); assay: Calcium assay, HEK293/Gα16 cells, GAL2R mutants; format: cell-based; conditions: GAL2R A170ECL2S
T1 construct: expressed in transfected cells; host or cells: HEK293
T1 sequence (O43603 1-387 A170S): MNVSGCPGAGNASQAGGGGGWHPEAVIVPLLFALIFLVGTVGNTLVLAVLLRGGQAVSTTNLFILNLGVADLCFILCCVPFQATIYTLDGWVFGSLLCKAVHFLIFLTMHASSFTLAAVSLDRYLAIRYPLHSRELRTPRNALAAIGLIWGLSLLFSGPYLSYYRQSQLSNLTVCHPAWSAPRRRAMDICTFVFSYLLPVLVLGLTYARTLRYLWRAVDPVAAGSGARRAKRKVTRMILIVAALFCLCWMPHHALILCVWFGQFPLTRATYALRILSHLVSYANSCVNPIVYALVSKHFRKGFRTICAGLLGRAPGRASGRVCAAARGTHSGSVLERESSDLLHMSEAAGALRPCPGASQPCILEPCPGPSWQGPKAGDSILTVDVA

GAL2R mutants [2] = target: T2, GAL2R mutants (Homo sapiens, UniProt O43603, Y164A); assay: Calcium assay, HEK293/Gα16 cells, GAL2R mutants; format: cell-based; conditions: GAL2R Y1644.64A
T2 construct: expressed in transfected cells; host or cells: HEK293
T2 sequence (O43603 1-387 Y164A): T1 sequence (O43603 1-387 A170S) with Y164A, S170A

Question: spexin was tested. Which Emax (GAL2R mutants [1]; response of 100 μM spexin compared to WT, mean ± S.E.M.) did it give?
Answer: 17.66±5.3%

Question: What about the EC50 (GAL2R mutants [1]; spexin, replicate 1) of the same substance?
Answer: 95.4 nM

Question: And the Emax (GAL2R mutants [1]; spexin, replicate 1)?
Answer: 11.3367%

Question: And the EC50 (GAL2R mutants [1]; spexin, replicate 2)?
Answer: 151.4 nM

Question: What about the Emax (GAL2R mutants [1]; spexin, replicate 2) of the same substance?
Answer: 13.424%

Question: And the EC50 (GAL2R mutants [1]; spexin, replicate 3)?
Answer: 150.6 nM

Question: And the Emax (GAL2R mutants [1]; spexin, replicate 3)?
Answer: 28.2269%

Question: And the Emax (GAL2R mutants [2]; response of 100 μM spexin compared to WT)?
Answer: NR (NR, no response, refers to response < 10% compared to WT receptor (spexin at 100 μM))

Question: What about the Emax (GAL2R mutants [2]; spexin, replicate 1) of the same substance?
Answer: no response

Question: What about the Emax (GAL2R mutants [2]; spexin, replicate 2) of the same substance?
Answer: no response

Question: And the Emax (GAL2R mutants [2]; spexin, replicate 3)?
Answer: no response
